Results: patent publication US6124269A, “2-Halo-6-O-substituted ketolide derivatives” (priority 1998, dated 2000)
In brackets after ≈: the same amount, converted by molar mass.

Tests used:
Format in all cases: cell-based
[1] = test system: Staphylococcus aureus A5177; experiment: In vitro agar dilution MIC, organism code BB; details: in µg/mL (unit assumed)
Procedure: (§1) Representative compounds of the present invention were assayed in vitro for antibacterial activity as follows: Twelve petri dishes containing successive aqueous dilutions of the test compound mixed with 10 mL of sterilized Brain Heart Infusion (BHI) agar (Difco 0418-01-5) were prepared. Each plate was inoculated with 1:100 (or 1:10 for slow-growing strains, such as Micrococcus and Streptococcus) dilutions of up to 32 different microorganisms, using a Steers replicator block. The inoculated plates were incubated at 35-37° C. for 20 to 24 hours. In addition, a control plate, using BHI agar containing no test compound, was prepared and incubated at the beginning and end of each test.
(§2) An additional plate containing a compound having known susceptibility patterns for the organisms being tested and belonging to the same antibiotic class as the test compound was also prepared and incubated as a further control, as well as to provide test-to-test comparability.
(§3) After incubation, each plate was visually inspected. The minimum inhibitory concentration (MIC) was defined as the lowest concentration of drug yielding no growth, a slight haze, or sparsely isolated colonies on the inoculum spot as compared to the growth control.

[2] = test system: Staphylococcus aureus CMX 553; experiment: In vitro agar dilution MIC, organism code FF; details: Table 1B, unit assumed
Procedure: as §1, §2, §3

[3] = test system: Staphylococcus epidermidis 3519; experiment: In vitro agar dilution MIC, organism code HH; details: Table 1B, in µg/mL (unit assumed)
Procedure: as §1, §2, §3

[4] = test system: Staphylococcus aureus CMX 642A; experiment: In vitro agar dilution MIC, organism code DD; details: Table 1B, unit assumed
Procedure: as §1, §2, §3

[5] = test system: Enterococcus faecium ATCC 8043; experiment: In vitro agar dilution MIC, organism code II; details: Table 1B, unit assumed
Procedure: as §1, §2, §3

[6] = test system: Staphylococcus aureus A-5278; experiment: In vitro agar dilution MIC, organism code CC; details: unit assumed
Procedure: as §1, §2, §3

Escherichia coli SS = experiment: In vitro agar dilution MIC, organism code RR; details: Table 1B, in µg/mL (unit assumed)
Procedure: as §1, §2, §3

Candida albicans CCH 442 = experiment: In vitro agar dilution MIC, organism code TT; details: Table 1B, unit assumed
Procedure: as §1, §2, §3

[7] = test system: Streptococcus pyogenes EES61; experiment: In vitro agar dilution MIC, organism code LL; details: unit assumed
Procedure: as §1, §2, §3

[8] = test system: Staphylococcus aureus 1775; experiment: In vitro agar dilution MIC, organism code GG; details: Table 1B, unit assumed
Procedure: as §1, §2, §3

[9] = test system: Streptococcus bovis A-5169; experiment: In vitro agar dilution MIC, organism code JJ; details: Table 1B, unit assumed
Procedure: as §1, §2, §3

[10] = test system: Streptococcus pneumoniae ATCC 6303; experiment: In vitro agar dilution MIC, organism code XX; details: unit assumed
Procedure: as §1, §2, §3

[11] = test system: Streptococcus agalactiae CMX 508; experiment: In vitro agar dilution MIC, organism code KK; details: Table 1B, unit assumed
Procedure: as §1, §2, §3

[12] = test system: Nocardia asteroides ATCC 9970; experiment: In vitro agar dilution MIC, organism code VV; details: Table 1B, in µg/mL (unit assumed)
Procedure: as §1
as §2, with “comparability. Erythromycin A was used for this purpose.” for “comparability.”
as §3

[13] = test system: Streptococcus pyogenes PIU 2548; experiment: In vitro agar dilution MIC, organism code NN; details: unit assumed
Procedure: as §1, §2, §3

[14] = test system: Streptococcus pyogenes 930; experiment: In vitro agar dilution MIC, organism code MM; details: unit assumed
Procedure: as §1, §2, §3

Escherichia coli DC-2 = experiment: In vitro agar dilution MIC, organism code SS; details: Table 1B, unit assumed
Procedure: as §1, §2, §3

[15] = test system: Streptococcus pneumoniae 5979; experiment: In vitro agar dilution MIC, organism code ZZ; details: unit assumed
Procedure: as §1, §2, §3

[16] = test system: Staphylococcus aureus NCTC10649M; experiment: In vitro agar dilution MIC, organism code EE; details: Table 1B, unit assumed
Procedure: as §1, §2, §3

Escherichia coli JUHL = experiment: In vitro agar dilution MIC, organism code QQ; details: Table 1B, in µg/mL (unit assumed)
Procedure: as §1, §2, §3

[17] = test system: Streptococcus pneumoniae GYR 1171; experiment: In vitro agar dilution MIC, organism code YY; details: Table 1B, unit assumed
Procedure: as §1, §2, §3

[18] = test system: Streptococcus pneumoniae 5649; experiment: In vitro agar dilution MIC, organism code ZZA; details: unit assumed
Procedure: as §1, §2, §3

[19] = test system: Staphylococcus aureus ATCC 6538P; experiment: In vitro agar dilution MIC, organism code AA; details: unit assumed
Procedure: as §1, §2, §3

[20] = test system: Mycobacterium smegmatis ATCC 114; experiment: In vitro agar dilution MIC, organism code UU; details: Table 1B, in µg/mL (unit assumed)
Procedure: as §1, §2, §3

[21] = test system: Micrococcus luteus ATCC 9341; experiment: In vitro agar dilution MIC, organism code OO; details: Table 1B, unit assumed
Procedure: as §1, §2, §3

[22] = test system: Micrococcus luteus ATCC 4698; experiment: In vitro agar dilution MIC, organism code PP; details: Table 1B, in µg/mL (unit assumed)
Procedure: as §1, §2, §3

[23] = test system: Haemophilis influenzae DILL AMP R; experiment: In vitro agar dilution MIC, organism code WW; details: unit assumed
Procedure: as §1, §2, §3

SMILES	MIC ([1]; Table 1B)	MIC [2]	MIC [3]	MIC [4]	MIC [5]	MIC ([6]; Table 1B)	MIC (Escherichia coli SS)	MIC (Candida albicans CCH 442)	MIC ([7]; Table 1B)	MIC [8]	MIC [9]	MIC ([10]; Table 1B)	MIC [11]	MIC [12]	MIC ([13]; Table 1B)	MIC ([14]; Table 1B)	MIC (Escherichia coli DC-2)	MIC [16]	MIC (Escherichia coli JUHL)	MIC [17]	further results
CC[C@H]1OC(=O)C(C)(F)C(=O)[C@H](C)[C@@H](O[C@@H]2O[C@H](C)C[C@H](N(C)C)[C@H]2O)[C@](C)(OCC#Cc2ccc(-c3cccs3)s2)C[C@@H](C)C(=O)[C@H](C)[C@H]2NC(=O)O[C@@]21C (stereo partly drawn) [Example 28]	0.1	0.1 µg/mL (≈ 0.122 µM)	0.1	0.1 µg/mL (≈ 0.122 µM)	0.05 µg/mL (≈ 0.061 µM)	> 100 µg/mL	0.78	> 100 µg/mL	0.02 µg/mL (≈ 0.0244 µM)	> 100 µg/mL	0.01 µg/mL (≈ 0.0122 µM)	≤ 0.004 µg/mL	0.02 µg/mL (≈ 0.0244 µM)	0.02	0.2 µg/mL (≈ 0.244 µM)	0.78 µg/mL (≈ 0.952 µM)	100 µg/mL (≈ 122 µM)	0.2 µg/mL (≈ 0.244 µM)	100	≤ 0.004 µg/mL	MIC ([15]; Table 1B): 16 µg/mL (≈ 19.5 µM); MIC ([18]; Table 1B): 0.25 µg/mL (≈ 0.305 µM); MIC ([19]; Table 1B): 0.05 µg/mL (≈ 0.061 µM); MIC [20]: 0.39; MIC [21]: 0.02 µg/mL (≈ 0.0244 µM); MIC [22]: 0.05; MIC ([23]; Table 1B): 2 µg/mL (≈ 2.44 µM)
CC[C@H]1OC(=O)[C@@](C)(F)C(=O)[C@H](C)[C@@H](O[C@@H]2O[C@H](C)C[C@H](N(C)C)[C@H]2O)[C@](C)(OC/C=C/c2cnc3ccc(C=NO)cc3c2)C[C@@H](C)C(=O)[C@H](C)[C@H]2NC(=O)O[C@@]21C [Example 18]	0.05	0.05 µg/mL (≈ 0.0605 µM)	0.05	0.05 µg/mL (≈ 0.0605 µM)	0.02 µg/mL (≈ 0.0242 µM)	50 µg/mL (≈ 60.5 µM)	0.2	> 100 µg/mL	≤ 0.005 µg/mL	50 µg/mL (≈ 60.5 µM)	≤ 0.005 µg/mL	0.015 µg/mL (≈ 0.0181 µM)	0.01 µg/mL (≈ 0.0121 µM)	0.01	0.02 µg/mL (≈ 0.0242 µM)	0.2 µg/mL (≈ 0.242 µM)	50 µg/mL (≈ 60.5 µM)	0.05 µg/mL (≈ 0.0605 µM)	25	0.015 µg/mL (≈ 0.0181 µM)	MIC ([15]; Table 1B): 0.25 µg/mL (≈ 0.302 µM); MIC ([18]; Table 1B): 0.25 µg/mL (≈ 0.302 µM); MIC ([19]; Table 1B): 0.02 µg/mL (≈ 0.0242 µM); MIC [20]: 0.78; MIC [21]: 0.01 µg/mL (≈ 0.0121 µM); MIC [22]: 0.02; MIC ([23]; Table 1B): 2 µg/mL (≈ 2.42 µM)
CC[C@H]1OC(=O)[C@H](C)C(=O)[C@H](C)[C@@H](O[C@@H]2O[C@H](C)C[C@H](N(C)C)[C@H]2O)[C@](C)(OC/C=C/c2ccccc2)C[C@@H](C)C(=O)[C@H](C)[C@H]2NC(=O)O[C@@]21C [Standard B, reference compound]	–	–	–	–	–	–	–	–	–	–	–	–	–	–	–	–	–	–	–	–	MIC ([7]; Table 1D): 0.03 µg/mL (≈ 0.042 µM); MIC ([10]; Table 1D): 0.03 µg/mL (≈ 0.042 µM); MIC ([13]; Table 1D): 0.25 µg/mL (≈ 0.35 µM); MIC ([14]; Table 1D): 64 µg/mL (≈ 89.5 µM); MIC ([15]; Table 1D): 128 µg/mL (≈ 179 µM); MIC ([18]; Table 1D): 0.25 µg/mL (≈ 0.35 µM); MIC ([23]; Table 1D): 4 µg/mL (≈ 5.6 µM)
CC[C@H]1OC(=O)C(C)(F)C(=O)[C@H](C)[C@@H](O[C@@H]2O[C@H](C)C[C@H](N(C)C)[C@H]2O)[C@](C)(OC)C[C@@H](C)C2=NCCN3C(=O)O[C@@]1(C)[C@H]3[C@H]2C (stereo partly drawn) [Example 1]	0.1	0.1 µg/mL (≈ 0.152 µM)	0.2	0.1 µg/mL (≈ 0.152 µM)	0.05 µg/mL (≈ 0.0762 µM)	> 100 µg/mL	0.2	> 100 µg/mL	0.01 µg/mL (≈ 0.0152 µM)	> 100 µg/mL	0.01 µg/mL (≈ 0.0152 µM)	0.03 µg/mL (≈ 0.0457 µM)	0.02 µg/mL (≈ 0.0305 µM)	0.05	0.2 µg/mL (≈ 0.305 µM)	> 100 µg/mL	25 µg/mL (≈ 38.1 µM)	0.2 µg/mL (≈ 0.305 µM)	> 50	0.03 µg/mL (≈ 0.0457 µM)	MIC ([1]; Table 1C): 0.1; MIC ([6]; Table 1C): > 100 µg/mL; MIC ([7]; Table 1C): 0.03 µg/mL (≈ 0.0457 µM); MIC ([10]; Table 1C): 0.03 µg/mL (≈ 0.0457 µM); MIC ([13]; Table 1C): 0.5 µg/mL (≈ 0.762 µM); MIC ([14]; Table 1C): > 128 µg/mL; MIC ([18]; Table 1B): 0.5 µg/mL (≈ 0.762 µM); MIC ([18]; Table 1C): 0.5 µg/mL (≈ 0.762 µM); MIC ([19]; Table 1B): 0.1 µg/mL (≈ 0.152 µM); MIC ([19]; Table 1C): 0.1 µg/mL (≈ 0.152 µM); MIC [20]: 0.2; MIC [21]: 0.02 µg/mL (≈ 0.0305 µM); MIC [22]: 0.2; MIC ([23]; Table 1B): 2 µg/mL (≈ 3.05 µM); MIC ([23]; Table 1C): 2 µg/mL (≈ 3.05 µM)
